# Molecular target: T1, PDE4D7 (Homo sapiens, UniProt Q08499)
# T1 construct: purchased BPS BioSciences 60708
# Assay: PDE4D7 TR-FRET assay
# Type: biochemical
# Conditions: TR-FRET assay kit, FAM-cAMP substrate
# Text: According to BPS Biosciences product information, the PDE4D7 TR-FRET assay is designed for identification of inhibitors of PDE4D7 using TR-FRET (Time Resolved Fluorescence Resonance Energy Transfer) technology. The assay is based on the generation of FAM-labeled nucleotide monophosphates by the phosphodiesterase. These phosphate groups bind to terbium-labeled nanoparticles, resulting in energy transfer from the terbium to the FAM, which emits a fluorescent signal at 520 nm. The change in fluorescent intensity can be easily measured using a fluorescence plate reader.
# The general assay protocol for PDE4D7 TR-FRET assay used to obtain the experimental data described below includes two steps: First, the fluorescent-labeled cAMP is incubated with a sample containing PDE4D7 for 1 hour. Second, a binding agent and a terbium donor are added to the reaction mix and incubated for 1 hour. Then, fluorescence intensity can be measured using a fluorescence reader. A detailed protocol is as follows
# Step 1: Dilute 20 μM FAM-Cyclic-3′,5′-AMP substrate stock solution 100-fold with PDE buffer to make a 200 nM solution. Make only a sufficient quantity needed for the assay; store remaining stock solution in aliquots at −20° C. Add 25 μl of FAM-Cyclic-3′,5′-AMP (200 nM) to each well designated “Substrate Control”, “Positive Control”, and “Test Inhibitor”. Add 25 μl of PDE assay buffer to each well designated “Tb-only Control”. Add 5 μl of inhibitor solution to each well designated “Test Inhibitor”. Add 5 μl of the same solution without inhibitor (inhibitor buffer) to the “Tb-only Control”, “Substrate Control” and “Positive Control”. Thaw PDE4D7 on ice. Upon first thaw, briefly spin tube containing enzyme to recover the full contents of the tube. […]
# Step 2: Make binding dilution buffer by mixing equal volumes of Binding buffer A and Binding buffer B. For example, mix 1 ml Binding buffer A with 1 ml Binding buffer B. Mix binding agent thoroughly and dilute binding agent 1:50 with binding dilution buffer made in Step 1. […] Read the fluorescent intensity in a microtiter-plate reader capable of TR-FRET.
# T1 sequence (Q08499 1-748 isoform Q08499-11): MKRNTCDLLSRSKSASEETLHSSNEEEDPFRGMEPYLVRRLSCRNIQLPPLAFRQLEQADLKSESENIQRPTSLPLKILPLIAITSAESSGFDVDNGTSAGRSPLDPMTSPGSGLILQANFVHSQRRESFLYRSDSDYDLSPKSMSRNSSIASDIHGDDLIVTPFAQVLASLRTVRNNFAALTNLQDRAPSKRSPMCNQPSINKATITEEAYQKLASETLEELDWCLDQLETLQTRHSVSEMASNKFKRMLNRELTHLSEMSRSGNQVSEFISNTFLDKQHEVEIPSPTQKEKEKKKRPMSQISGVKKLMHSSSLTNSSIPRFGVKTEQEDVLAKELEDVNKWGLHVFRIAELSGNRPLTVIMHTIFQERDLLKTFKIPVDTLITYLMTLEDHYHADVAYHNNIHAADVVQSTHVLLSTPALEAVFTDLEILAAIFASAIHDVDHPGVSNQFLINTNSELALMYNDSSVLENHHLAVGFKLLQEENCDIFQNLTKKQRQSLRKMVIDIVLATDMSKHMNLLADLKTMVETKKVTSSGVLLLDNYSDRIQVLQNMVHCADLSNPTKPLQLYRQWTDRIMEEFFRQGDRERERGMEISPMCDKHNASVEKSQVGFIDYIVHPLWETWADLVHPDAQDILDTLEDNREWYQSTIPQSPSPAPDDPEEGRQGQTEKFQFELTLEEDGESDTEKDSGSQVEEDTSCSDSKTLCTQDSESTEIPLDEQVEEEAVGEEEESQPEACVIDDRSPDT
row,SMILES,IC50
1,"COc1cccc2c1ncc1c(=O)n([C@H]3CC[C@H](C(=O)O)CC3)c(=O)n(-c3cccc(Cl)c3)c12 [COMPOUND I * HCI (Batch 3), trans-4-[1-(3-chlorophenyl)-7-methoxy-2,4-dioxo-pyrimido[5,4-c]quinolin-3-yl]cyclohexanecarboxylic acid]",1.1 nM
2,"COc1cccc2c1ncc1c(=O)n([C@H]3CC[C@H](C(=O)O)CC3)c(=O)n(-c3cccc(Cl)c3)c12 [COMPOUND I * HCI (Batch 2), trans-4-[1-(3-chlorophenyl)-7-methoxy-2,4-dioxo-pyrimido[5,4-c]quinolin-3-yl]cyclohexanecarboxylic acid]",3.3 nM
3,"COc1cccc2c1ncc1c(=O)n([C@H]3CC[C@H](C(=O)O)CC3)c(=O)n(-c3cccc(Cl)c3)c12 [COMPOUND I * HCI (Batch 1), trans-4-[1-(3-chlorophenyl)-7-methoxy-2,4-dioxo-pyrimido[5,4-c]quinolin-3-yl]cyclohexanecarboxylic acid]",1.5 nM

# Source: US20230265089A1, “QUINOLINE DERIVATIVES, PHARMACEUTICALLY ACCEPTABLE SALTS, AND METHODS OF USE THEREOF” (vTv Therapeutics LLC, priority 2020, published 2023)
